Source: article PMC4774911, “Biochemical Screening of Five Protein Kinases from Plasmodium falciparum against 14,000 Cell-Active Compounds” (PLoS ONE, 2016)
“And” between values parts separate entries of the source, which are not always exact repeats. Identical values can stand only once.

Tests used:
Assay in all cases: biochemical
CAMKK2 = CAMKK2 (Homo sapiens, UniProt Q96RR4)
MAP3K7 = biological target: T1, MAP3K7 (Homo sapiens, UniProt O43318)
T1 sequence (O43318 1-606): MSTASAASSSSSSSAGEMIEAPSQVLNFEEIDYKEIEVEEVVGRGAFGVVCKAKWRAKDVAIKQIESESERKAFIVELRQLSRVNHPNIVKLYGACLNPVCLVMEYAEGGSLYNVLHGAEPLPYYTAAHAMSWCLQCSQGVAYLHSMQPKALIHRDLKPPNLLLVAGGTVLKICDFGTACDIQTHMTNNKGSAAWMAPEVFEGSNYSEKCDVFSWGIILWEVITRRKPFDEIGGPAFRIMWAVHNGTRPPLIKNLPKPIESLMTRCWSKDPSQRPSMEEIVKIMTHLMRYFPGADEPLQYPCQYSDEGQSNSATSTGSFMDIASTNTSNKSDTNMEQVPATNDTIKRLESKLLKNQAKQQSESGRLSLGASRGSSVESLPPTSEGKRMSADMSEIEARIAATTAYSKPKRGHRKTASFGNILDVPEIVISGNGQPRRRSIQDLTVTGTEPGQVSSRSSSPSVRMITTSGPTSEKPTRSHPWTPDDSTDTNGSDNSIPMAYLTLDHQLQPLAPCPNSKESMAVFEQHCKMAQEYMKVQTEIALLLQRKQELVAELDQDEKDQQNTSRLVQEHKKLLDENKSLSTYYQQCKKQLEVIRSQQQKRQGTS

MAPK14 = MAPK14 (Homo sapiens, UniProt Q16539)
MYLK3 = biological target: T2, MYLK3 (Homo sapiens, UniProt Q32MK0)
T2 sequence (Q32MK0 1-819): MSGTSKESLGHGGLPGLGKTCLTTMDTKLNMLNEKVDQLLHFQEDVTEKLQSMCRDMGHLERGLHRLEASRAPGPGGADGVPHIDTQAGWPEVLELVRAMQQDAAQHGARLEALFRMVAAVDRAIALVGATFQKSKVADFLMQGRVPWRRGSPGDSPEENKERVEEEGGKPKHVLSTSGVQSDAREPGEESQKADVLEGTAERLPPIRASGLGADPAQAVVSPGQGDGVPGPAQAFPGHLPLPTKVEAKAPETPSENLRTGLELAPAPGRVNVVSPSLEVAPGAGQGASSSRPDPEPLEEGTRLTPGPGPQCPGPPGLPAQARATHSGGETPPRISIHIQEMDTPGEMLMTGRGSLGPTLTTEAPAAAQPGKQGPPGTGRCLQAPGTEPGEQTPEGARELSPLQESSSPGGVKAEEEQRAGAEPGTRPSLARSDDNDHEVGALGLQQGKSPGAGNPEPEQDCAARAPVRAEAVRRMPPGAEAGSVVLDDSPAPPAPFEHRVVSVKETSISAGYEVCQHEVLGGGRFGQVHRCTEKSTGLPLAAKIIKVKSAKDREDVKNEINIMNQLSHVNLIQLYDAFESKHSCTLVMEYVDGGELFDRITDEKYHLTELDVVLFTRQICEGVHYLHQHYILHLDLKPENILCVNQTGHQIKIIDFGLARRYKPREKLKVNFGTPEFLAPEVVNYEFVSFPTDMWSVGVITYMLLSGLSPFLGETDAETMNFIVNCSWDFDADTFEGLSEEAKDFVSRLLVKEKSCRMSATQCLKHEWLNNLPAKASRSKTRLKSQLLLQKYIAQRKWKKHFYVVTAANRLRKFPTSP

PKMYT1 = biological target: T3, PKMYT1 (Homo sapiens, UniProt Q99640)
T3 sequence (Q99640 1-499): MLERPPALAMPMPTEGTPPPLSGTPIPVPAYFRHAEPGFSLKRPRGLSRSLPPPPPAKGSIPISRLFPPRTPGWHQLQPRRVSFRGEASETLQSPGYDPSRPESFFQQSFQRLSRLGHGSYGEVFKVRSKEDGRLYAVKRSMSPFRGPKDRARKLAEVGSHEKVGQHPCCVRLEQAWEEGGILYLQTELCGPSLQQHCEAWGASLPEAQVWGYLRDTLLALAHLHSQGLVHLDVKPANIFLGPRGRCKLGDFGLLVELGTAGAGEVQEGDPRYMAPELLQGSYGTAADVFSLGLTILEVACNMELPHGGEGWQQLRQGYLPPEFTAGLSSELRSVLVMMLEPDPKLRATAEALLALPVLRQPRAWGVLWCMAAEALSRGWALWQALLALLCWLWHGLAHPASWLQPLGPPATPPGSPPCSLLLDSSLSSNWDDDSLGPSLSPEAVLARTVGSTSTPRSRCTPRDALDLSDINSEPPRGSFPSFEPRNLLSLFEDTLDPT

STK17A = biological target: T4, STK17A (Homo sapiens, UniProt Q9UEE5)
T4 sequence (Q9UEE5 1-414): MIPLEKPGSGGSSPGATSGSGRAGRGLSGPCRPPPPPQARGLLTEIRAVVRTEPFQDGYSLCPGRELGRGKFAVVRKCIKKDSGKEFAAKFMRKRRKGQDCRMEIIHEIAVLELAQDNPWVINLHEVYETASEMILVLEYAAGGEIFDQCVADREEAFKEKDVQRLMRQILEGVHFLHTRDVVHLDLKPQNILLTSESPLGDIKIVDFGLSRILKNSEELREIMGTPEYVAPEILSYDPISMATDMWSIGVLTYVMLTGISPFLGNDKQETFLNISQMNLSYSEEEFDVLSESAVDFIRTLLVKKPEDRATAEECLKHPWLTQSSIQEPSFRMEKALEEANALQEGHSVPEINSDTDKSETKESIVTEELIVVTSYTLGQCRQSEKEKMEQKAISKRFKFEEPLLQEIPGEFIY

WEE1 = WEE1 (Homo sapiens, UniProt P30291)
ZAK = ZAK (Homo sapiens, UniProt Q9NYL2)
Sequence of ZAK (Q9NYL2 whole entry): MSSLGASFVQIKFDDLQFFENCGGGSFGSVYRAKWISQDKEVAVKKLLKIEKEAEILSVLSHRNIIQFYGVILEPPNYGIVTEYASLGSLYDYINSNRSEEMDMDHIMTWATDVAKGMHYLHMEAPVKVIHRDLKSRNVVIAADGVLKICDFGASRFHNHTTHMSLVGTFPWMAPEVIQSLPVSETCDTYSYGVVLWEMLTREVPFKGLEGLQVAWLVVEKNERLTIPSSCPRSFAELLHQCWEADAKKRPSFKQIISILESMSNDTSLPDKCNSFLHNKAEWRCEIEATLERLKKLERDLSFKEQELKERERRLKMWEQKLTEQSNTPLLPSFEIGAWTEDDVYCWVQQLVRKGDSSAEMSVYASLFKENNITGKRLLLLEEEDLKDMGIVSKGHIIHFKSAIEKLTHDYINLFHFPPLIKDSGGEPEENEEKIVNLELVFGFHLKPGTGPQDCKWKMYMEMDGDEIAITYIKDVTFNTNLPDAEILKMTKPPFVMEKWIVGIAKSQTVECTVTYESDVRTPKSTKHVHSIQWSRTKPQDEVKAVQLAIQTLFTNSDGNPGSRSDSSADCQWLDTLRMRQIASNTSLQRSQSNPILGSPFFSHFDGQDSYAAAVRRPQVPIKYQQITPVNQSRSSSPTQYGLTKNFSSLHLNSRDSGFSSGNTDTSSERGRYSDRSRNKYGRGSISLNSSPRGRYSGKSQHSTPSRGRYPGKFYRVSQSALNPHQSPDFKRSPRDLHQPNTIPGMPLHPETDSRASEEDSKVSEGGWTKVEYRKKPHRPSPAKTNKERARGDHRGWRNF

Sequence of WEE1 (P30291 whole entry): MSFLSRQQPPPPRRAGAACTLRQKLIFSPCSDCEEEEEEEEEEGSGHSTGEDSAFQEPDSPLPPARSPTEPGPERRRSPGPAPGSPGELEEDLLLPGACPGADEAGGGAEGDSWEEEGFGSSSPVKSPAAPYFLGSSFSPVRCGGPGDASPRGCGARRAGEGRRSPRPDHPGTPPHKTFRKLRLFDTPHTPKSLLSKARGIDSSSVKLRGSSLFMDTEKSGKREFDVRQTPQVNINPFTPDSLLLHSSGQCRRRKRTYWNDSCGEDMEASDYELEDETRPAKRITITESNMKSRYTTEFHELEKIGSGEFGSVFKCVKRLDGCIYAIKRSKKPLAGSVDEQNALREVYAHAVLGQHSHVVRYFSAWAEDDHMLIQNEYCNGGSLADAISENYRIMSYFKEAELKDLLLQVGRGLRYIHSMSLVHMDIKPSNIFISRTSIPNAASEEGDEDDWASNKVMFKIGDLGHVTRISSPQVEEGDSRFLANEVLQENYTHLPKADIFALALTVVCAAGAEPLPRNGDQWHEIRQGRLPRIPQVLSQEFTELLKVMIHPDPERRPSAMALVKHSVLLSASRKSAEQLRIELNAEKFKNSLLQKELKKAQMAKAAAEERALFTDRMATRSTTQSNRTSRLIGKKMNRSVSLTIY
Sequence of CAMKK2 (Q96RR4 whole entry): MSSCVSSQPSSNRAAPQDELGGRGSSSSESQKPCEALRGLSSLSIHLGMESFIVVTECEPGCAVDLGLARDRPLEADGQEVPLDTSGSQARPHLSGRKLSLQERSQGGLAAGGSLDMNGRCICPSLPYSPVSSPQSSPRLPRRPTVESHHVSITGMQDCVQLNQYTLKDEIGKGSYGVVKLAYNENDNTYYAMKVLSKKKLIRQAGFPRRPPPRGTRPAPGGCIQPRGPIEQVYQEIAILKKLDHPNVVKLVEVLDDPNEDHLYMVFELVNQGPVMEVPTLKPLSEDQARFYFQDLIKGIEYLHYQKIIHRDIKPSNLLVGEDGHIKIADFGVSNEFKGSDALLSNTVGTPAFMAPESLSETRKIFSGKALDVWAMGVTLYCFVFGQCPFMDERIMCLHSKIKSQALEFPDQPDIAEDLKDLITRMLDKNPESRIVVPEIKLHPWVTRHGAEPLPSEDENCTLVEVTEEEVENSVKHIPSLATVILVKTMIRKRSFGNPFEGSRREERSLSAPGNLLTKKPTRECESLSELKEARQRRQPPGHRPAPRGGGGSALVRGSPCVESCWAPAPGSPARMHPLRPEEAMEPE
Sequence of MAPK14 (Q16539 whole entry): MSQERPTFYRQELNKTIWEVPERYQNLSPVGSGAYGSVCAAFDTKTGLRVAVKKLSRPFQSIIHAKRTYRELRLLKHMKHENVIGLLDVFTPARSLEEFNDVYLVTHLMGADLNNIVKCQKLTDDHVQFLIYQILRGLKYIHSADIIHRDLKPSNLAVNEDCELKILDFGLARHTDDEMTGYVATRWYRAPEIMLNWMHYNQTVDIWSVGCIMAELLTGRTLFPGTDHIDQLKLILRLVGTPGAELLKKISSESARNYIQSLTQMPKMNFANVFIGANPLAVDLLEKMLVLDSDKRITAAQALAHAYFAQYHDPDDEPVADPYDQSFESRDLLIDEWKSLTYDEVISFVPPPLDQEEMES

CN1CCN(c2ccc(Nc3ncc(C#N)c(Nc4ccccc4C(N)=O)n3)cc2)CC1.Cl [TCMDC-134116]
IC50 (CAMKK2): 0.36 µM and 0.38 µM
IC50 (MAP3K7): 2000 nM and 1100 nM
IC50 (MAPK14): > 20 µM
IC50 (MYLK3): 67 nM and 93 nM
IC50 (PKMYT1): 1400 nM and 940 nM
IC50 (STK17A): 0.18 µM
IC50 (WEE1): 48 nM and 47 nM
IC50 (ZAK): 0.95 µM

Cl.NCC1(c2nc(-c3ccc(Cl)c(O)c3)c(-c3ccncc3)[nH]2)CCCCC1 [TCMDC-141154]
IC50 (CAMKK2): > 20 µM
IC50 (MAP3K7): > 20000 nM
IC50 (MAPK14): ≤ 0.032 µM
IC50 (MYLK3): > 20000 nM
IC50 (PKMYT1): > 20000 nM
IC50 (STK17A): > 20 µM
IC50 (WEE1): > 20000 nM
IC50 (ZAK): 8.6 µM and 5.1 µM

CN(C)CC(O)COc1ccc(Nc2ncc([N+](=O)[O-])c(Nc3ccccc3O)n2)cc1.O=C(O)C(F)(F)F (stereo not drawn) [TCMDC-141399]
IC50 (CAMKK2): 5.3 µM and 5.6 µM
IC50 (MAP3K7): > 20000 nM
IC50 (MAPK14): > 20 µM
IC50 (MYLK3): 2100 nM and 1800 nM
IC50 (PKMYT1): > 20000 nM
IC50 (STK17A): 4.2 µM
IC50 (WEE1): 580 nM
IC50 (ZAK): > 20 µM
